Where two headings read alike, the source gives them in different places.
How the values were obtained:
Human CDK12 wt/CycK = Human CDK12 wt/CycK (Homo sapiens (Human), UniProt Q9NYV4); assay: Radiometric protein kinase assay (33PanQinase Activity Assay), CDK12; format: biochemical; settings: for CDK7/CDK12: ratio of CDK7 IC50 to CDK12 IC50, greater than 1 indicates selectivity for CDK12
Description: (§1) A radiometric protein kinase assay (^33PanQinase® Activity Assay) was used for measuring the kinase activity of the two protein kinases (CDK12/CDK7). All kinase assays were performed in 96-well FlashPlates™ from PerkinElmer (Boston, MA, USA) in a 50 μL reaction volume.
(§2) The reaction cocktail was pipetted in four steps in the following order: • 20 μL of assay buffer (standard buffer) • 5 μL of ATP solution (in H2O) • 5 μL of test compound (in 10% DMSO) • 10 μL of substrate/10 μL of enzyme solution (premixed)
(§3) The reaction mixture was incubated at 30° C. for 60 min and then stopped by the addition of 2% (v/v) H3PO4. Plates were aspirated and washed two times with 200 μL 0.9% (w/v) NaCl. Incorporation of ^33Pi was determined with a microplate scintillation count (Microbeta, Wallac).
The fitting method used was a least-squares fit.

A673 cells = assay: Cytotoxicity in A673 cells (Cell Titer Glo viability); format: cell-based; settings: for Ratio of Biochemical Potency:Cellular Potency: CDK12 IC50 / A673 IC50; for IC50: Homo sapiens
Description: Cells were plated in 96-well plates at a density of […] viable cells per well in 200 μL fully supplemented growth medium (DMEM+10% heat inactivated foetal bovine serum) and incubated for 24 hours in standard tissue culture conditions. Compounds, including MLN4924, were solubilised in DMSO and then diluted in fully supplemented growth medium at 2× their final assay concentration such that the final DMSO concentration was 0.1%. Growth medium in the assay plates was replaced with 50 μL of growth medium containing 2×MLN4924 (final assay concentration: 30 nM, where tested) or vehicle only and 50 μL of growth medium containing a 2× compound concentration series or vehicle only such that each compound was at 1× final assay concentration in 100 μL.
Cells were then incubated for 72 hours in standard tissue culture conditions before viability was assessed using 50 μL Cell Titer Glo reagent (Promega) per well and luminescence measured on an EnVision plate reader. Data were normalised to vehicle control (100%) and cells treated with 0.1% Triton x-100 for 1 hour before viability measurement (0%; full cell kill). […] Viability curves generated in the presence of MLN4924 were normalised and fixed to controls treated with MLN4924.

Human CDK7/CycH/MAT1 = Human CDK7/CycH/MAT1 (Homo sapiens (Human), UniProt P50613); assay: Radiometric protein kinase assay (33PanQinase Activity Assay), CDK7; format: biochemical; settings: ATP 3 μM
Chain of Human CDK7/CycH/MAT1 (P50613 whole entry): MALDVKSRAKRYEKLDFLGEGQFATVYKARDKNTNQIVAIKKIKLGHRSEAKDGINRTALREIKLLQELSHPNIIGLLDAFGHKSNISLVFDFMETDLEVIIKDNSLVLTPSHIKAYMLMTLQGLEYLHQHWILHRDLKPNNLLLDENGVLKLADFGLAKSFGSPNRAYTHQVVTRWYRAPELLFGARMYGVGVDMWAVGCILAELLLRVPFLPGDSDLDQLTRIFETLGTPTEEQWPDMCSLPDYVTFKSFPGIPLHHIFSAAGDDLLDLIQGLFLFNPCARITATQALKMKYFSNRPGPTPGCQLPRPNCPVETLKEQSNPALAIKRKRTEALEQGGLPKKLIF
Chain of Human CDK7/CycH/MAT1 (P51946 whole entry partner): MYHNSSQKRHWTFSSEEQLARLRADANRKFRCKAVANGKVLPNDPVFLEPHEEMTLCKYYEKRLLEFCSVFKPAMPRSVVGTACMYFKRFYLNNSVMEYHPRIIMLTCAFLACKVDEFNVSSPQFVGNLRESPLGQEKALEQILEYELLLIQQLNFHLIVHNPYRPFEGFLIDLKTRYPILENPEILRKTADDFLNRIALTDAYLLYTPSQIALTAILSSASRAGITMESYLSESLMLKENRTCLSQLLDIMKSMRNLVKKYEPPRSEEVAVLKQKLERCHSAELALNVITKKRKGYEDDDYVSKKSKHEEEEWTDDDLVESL
Chain of Human CDK7/CycH/MAT1 (P51948 whole entry partner): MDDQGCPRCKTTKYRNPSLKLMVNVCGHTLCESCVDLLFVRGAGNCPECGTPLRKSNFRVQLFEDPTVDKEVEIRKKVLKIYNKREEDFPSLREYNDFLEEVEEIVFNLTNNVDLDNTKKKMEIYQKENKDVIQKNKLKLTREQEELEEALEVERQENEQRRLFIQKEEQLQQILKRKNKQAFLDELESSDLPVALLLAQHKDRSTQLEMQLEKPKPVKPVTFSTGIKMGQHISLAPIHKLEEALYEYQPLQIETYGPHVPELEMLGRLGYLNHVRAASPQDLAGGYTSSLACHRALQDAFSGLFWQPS
Description: Additionally for the CDK7 assay: • Human CDK7/CycH/MAT1 (ProQinase, 0366-0360-4—Lot 2). • RBER-CHKtide (ProQinase, 0581-0000-5—Lot 106).
as §1, §2
For the CDK7 assay, a reaction mixture (50 μL) containing the following components was prepared: • 70 mM HEPES-NaOH (pH 7.5); • sodium orthovanadate (3 μM); • PEG-20000 (50 μg/mL); • DTT (1.2 mM); • MgCl2 (3 mM); • MnCl2 (3 mM); • purified human CDK7/CycH/MAT1 (3.3 nM—Lot 02); • RBER-CHKtide substrate (40 μg/mL—Lot 106); • ATP (3 μM); • [γ-33P]-ATP (approx. 8×10^5 cpm per well); and • test compound at the appropriate concentration such that the final concentration of DMSO was […].
as §3
The residual activities for each concentration and the compound IC50 values were calculated using Quattro Workflow V3.1.1 (Quattro Research GmbH, Munich, Germany). The fitting model for the IC50 determinations was “Sigmoidal response (variable slope)” with parameters “top” fixed at 100% and “bottom” at 0%. The fitting method used was a least-squares fit.

[1] = ATP 0.3 μM, read-out: CDK12 IC50
[2] = read-out: CKD12 Biochemical Potency IC50
[3] = A673, read-out: Cellular Potency IC50 (nM) (in A673 cells)
[4] = A673 cells, 72 hours, read-out: A673 IC50

Chain of Human CDK12 wt/CycK (Q9NYV4 whole entry): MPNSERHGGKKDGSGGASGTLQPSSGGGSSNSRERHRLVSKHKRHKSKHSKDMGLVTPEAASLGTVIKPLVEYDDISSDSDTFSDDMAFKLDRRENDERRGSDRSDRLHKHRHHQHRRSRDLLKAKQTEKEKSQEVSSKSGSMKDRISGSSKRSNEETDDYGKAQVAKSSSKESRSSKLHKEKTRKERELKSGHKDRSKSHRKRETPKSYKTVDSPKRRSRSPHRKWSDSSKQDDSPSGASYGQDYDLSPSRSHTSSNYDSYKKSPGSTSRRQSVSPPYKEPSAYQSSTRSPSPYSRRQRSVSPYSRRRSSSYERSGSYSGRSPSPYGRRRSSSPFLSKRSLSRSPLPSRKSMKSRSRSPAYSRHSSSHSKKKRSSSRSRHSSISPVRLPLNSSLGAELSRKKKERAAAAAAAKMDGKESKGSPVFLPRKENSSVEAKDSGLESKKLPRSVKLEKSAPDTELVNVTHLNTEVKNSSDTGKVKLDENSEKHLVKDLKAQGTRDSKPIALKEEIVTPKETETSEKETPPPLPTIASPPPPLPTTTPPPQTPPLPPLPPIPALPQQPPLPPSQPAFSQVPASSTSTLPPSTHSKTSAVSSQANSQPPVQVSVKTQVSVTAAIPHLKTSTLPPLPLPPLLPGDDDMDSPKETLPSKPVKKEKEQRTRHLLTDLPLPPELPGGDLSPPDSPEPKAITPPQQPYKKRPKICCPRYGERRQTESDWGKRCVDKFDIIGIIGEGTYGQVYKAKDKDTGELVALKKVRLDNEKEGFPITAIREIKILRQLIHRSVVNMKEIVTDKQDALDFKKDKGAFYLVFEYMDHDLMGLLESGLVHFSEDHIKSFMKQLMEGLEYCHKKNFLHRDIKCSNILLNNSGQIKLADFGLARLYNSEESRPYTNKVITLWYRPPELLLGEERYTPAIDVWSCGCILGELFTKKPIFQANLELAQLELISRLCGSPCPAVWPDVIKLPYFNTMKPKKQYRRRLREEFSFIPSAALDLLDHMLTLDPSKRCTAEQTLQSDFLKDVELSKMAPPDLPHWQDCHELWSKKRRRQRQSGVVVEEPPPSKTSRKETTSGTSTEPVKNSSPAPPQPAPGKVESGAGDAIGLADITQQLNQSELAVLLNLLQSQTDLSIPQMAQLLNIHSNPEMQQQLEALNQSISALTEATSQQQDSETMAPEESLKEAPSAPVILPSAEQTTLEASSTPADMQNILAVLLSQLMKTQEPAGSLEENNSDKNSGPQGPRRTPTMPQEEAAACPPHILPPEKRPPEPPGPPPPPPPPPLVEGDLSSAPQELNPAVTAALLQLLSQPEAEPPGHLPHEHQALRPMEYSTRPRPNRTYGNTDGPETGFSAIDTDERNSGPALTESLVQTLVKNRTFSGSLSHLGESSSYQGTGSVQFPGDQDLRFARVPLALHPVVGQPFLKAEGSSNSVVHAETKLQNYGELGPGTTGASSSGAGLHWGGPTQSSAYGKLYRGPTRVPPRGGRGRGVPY
Chain of Human CDK12 wt/CycK (O75909 whole entry partner): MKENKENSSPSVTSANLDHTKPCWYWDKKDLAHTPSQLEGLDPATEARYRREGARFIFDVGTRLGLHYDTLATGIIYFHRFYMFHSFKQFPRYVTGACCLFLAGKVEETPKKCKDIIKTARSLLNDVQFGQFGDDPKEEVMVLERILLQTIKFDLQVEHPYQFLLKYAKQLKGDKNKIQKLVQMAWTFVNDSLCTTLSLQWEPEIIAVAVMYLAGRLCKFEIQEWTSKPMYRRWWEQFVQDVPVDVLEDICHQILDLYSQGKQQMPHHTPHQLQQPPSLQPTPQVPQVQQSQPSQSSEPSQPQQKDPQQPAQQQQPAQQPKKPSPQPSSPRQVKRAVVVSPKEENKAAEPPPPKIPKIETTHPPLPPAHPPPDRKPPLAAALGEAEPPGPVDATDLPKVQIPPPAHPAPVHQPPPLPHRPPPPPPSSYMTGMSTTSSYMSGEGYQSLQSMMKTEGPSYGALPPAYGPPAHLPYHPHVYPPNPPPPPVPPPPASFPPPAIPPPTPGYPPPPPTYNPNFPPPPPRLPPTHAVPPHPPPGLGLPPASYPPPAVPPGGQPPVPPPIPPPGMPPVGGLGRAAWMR

SMILES	IC50 (Human CDK12 wt/CycK; [1]) [nM]	CDK7/CDK12 (Human CDK12 wt/CycK)	IC50 (Human CDK12 wt/CycK; [2]) [nM]	Ratio of Biochemical Potency:Cellular Potency (A673 cells)	IC50 (A673 cells; [3]) [nM]	IC50 (A673 cells; [4]) [nM]	IC50 (Human CDK7/CycH/MAT1) [nM]
O[C@H]1CNCC[C@@H]1CNc1cc(NCc2ccc(-c3ncccc3OC(F)(F)F)cc2)n2ncc(C3CC3)c2n1 [PPA-028]	242	1.9	242	24.95	9.7	9.7	468
O[C@H]1CNCC[C@@H]1CNc1cc(NCc2ccc(-c3ncccn3)cc2)n2ncc(C3CC3)c2n1 [PPA-029]	63	2.8	63	45.00	1.4	1.4	179
COc1cc(-c2ccccn2)ccc1CNc1cc(NC[C@H]2CCNC[C@@H]2O)nc2c(C3CC3)cnn12 [PPA-030]	218	1.7	218	35.16	6.2	6.2	370
O[C@H]1CNCC[C@@H]1CNc1cc(NCc2ccc(-c3ncco3)cc2)n2ncc(C3CC3)c2n1 [PPA-031]	60	2.6	60	46.15	1.3	1.3	155
c1ccc(-c2ccc(CNc3cc(NC[C@H]4CNCCO4)nc4c(C5CC5)cnn34)cc2)nc1 [PPA-032]	1160	2.4	1160	22.52	51.5	51.5	2760
c1ccc(-c2ccc(CNc3cc(N4CCOCC4)nc4c(C5CC5)cnn34)cc2)nc1 [PPA-033]	1050	6.3	1050	19.81	53	53	6650
O[C@H]1CNCC[C@@H]1CNc1cc(NCc2ccc(-c3ccccc3)cn2)n2ncc(C3CC3)c2n1 [PPA-034]	121	4.4	121	10.71	11.3	11.3	530
O[C@H]1CNCC[C@@H]1CNc1cc(NCc2ccc(-c3cscn3)cc2)n2ncc(C3CC3)c2n1 [PPA-035]	52	2.2	52	28.89	1.8	1.8	113
O[C@H]1CNCC[C@@H]1CNc1cc(NCc2ccc(-c3ncccc3C(F)(F)F)cc2)n2ncc(C3CC3)c2n1 [PPA-036]	245	1.6	245	0.78	312	312	388
c1ccc(-c2ccc(CNc3cc(N4CCNCC4)nc4c(C5CC5)cnn34)cc2)nc1 [PPA-038]	115	26.3	115	18.55	6.2	6.2	3020
FC1(F)CNCCC1CNc1cc(NCc2ccc(-c3ccccn3)cc2)n2ncc(C3CC3)c2n1 (stereo not shown) [PPA-041]	189	8.5	189	10.92	17.3	17.3	1600
c1ccc(-c2ccc(CNc3cc(N4CC5(CCNCC5)C4)nc4c(C5CC5)cnn34)cc2)nc1 [PPA-042]	2020	5.1	2020	8.69	232	232	10300
c1ccc(-c2ccc(CNc3cc(N[C@@H]4CCNC4)nc4c(C5CC5)cnn34)cc2)nc1 [PPA-043]	254	23.9	254	18.54	13.7	13.7	6080
c1ccc(-c2ccc(CNc3cc(N[C@@H]4CCCNC4)nc4c(C5CC5)cnn34)cc2)nc1 [PPA-045]	374	25.7	374	11.27	33.2	33.2	9610
CC(=O)N1CCC(CNc2cc(NCc3ccc(-c4ccccn4)cc3)n3ncc(C4CC4)c3n2)CC1 [PPA-046]	3780	>8	3780	12.38	305	305	> 30000
c1ccc(-c2ccc(CNc3cc(NC4CCNCC4)nc4c(C5CC5)cnn34)cc2)nc1 [PPA-048]	82	15.7	82	12.06	6.8	6.8	1290
OC1CCN(c2cc(NCc3ccc(-c4ccccn4)cc3)n3ncc(C4CC4)c3n2)CC1 [PPA-050]	423	24.8	423	9.44	44.8	44.8	10500
O=C1CC(CNc2cc(NCc3ccc(-c4ccccn4)cc3)n3ncc(C4CC4)c3n2)CCN1 (stereo not shown) [PPA-051]	664	16.9	664	22.98	28.9	28.9	11200
OC1CN(c2cc(NCc3ccc(-c4ccccn4)cc3)n3ncc(C4CC4)c3n2)C1 [PPA-052]	6630	>4.5	6630	<66.3	> 100	> 100	> 30000
CN(C[C@H]1CCNC[C@@H]1O)c1cc(NCc2ccc(-c3ccccn3)cc2)n2ncc(C3CC3)c2n1 [PPA-053]	53	3.2	53	21.20	2.5	2.5	169
O[C@H]1CNCC[C@@H]1CNc1cc(NCc2ccc(-c3nccs3)cc2F)n2ncc(C3CC3)c2n1 [PPA-054]	49	12.0	49	18.15	2.7	2.7	589
NC1CN(c2cc(NCc3ccc(-c4ccccn4)cc3)n3ncc(C4CC4)c3n2)C1 [PPA-057]	1240	10.7	1240	24.65	50.3	50.3	13300
c1ccc(-c2ccc(CNc3cc(O[C@@H]4CCCNC4)nc4c(C5CC5)cnn34)cc2)nc1 [PPA-061]	97	13.0	97	18.30	5.3	5.3	1260
FC1(CNc2cc(NCc3ccc(-c4ccccn4)cc3)n3ncc(C4CC4)c3n2)CCNCC1 [PPA-062]	459	7.9	459	34.25	13.4	13.4	3640
O[C@H]1CNCC[C@@H]1CNc1cc(NCc2ccc(-c3ccccc3)cc2F)n2ncc(C3CC3)c2n1 [PPA-066]	174	5.2	174	7.13	24.4	24.4	912

From patent US20240383900A1, “SUBSTITUTED PYRAZOLO [1,5-A]PYRIMIDINE-7-AMINE COMPOUNDS AS CDK INHIBITORS AND THEIR THERAPEUTIC USE” (Carrick Therapeutics Limited, priority 2021, published 2024)
